Among the test systems are CCRF-CEM leukemia; DU-145 prostate; HCT-116 colon; HOP-92 NSCLC; HS 578T breast; MDA-MB-435; NCI/ADR-RES ovarian; OVCAR-8 ovarian; SF-268 CNS; T-47D breast; UACC-62 melanoma.
Common to all, as to test: NCI tumour cell line growth inhibition, 48 h

The source of these data is PubChem BioAssay (NCI).

The structures appear in SMILES notation.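 Following 48 hours of exposure in 96-well plates, responses at five concentrations were used to interpolate endpoints linearly. Definition used: TGI = concentration required for complete inhibition of growth.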

On to `Cc1ccc(C(=O)O)c(CC2Cc3c(C)cccc3C2=O)c1` (stereo not given), for which the TGI with CCRF-CEM leukemia, in the assay with DU-145 prostate, with HCT-116 colon, in the assay on HOP-92 NSCLC, with HS 578T breast and with MDA-MB-435 was above 100 µM throughout. The TGI in the assay on NCI/ADR-RES ovarian, with OVCAR-8 ovarian, with SF-268 CNS, in the assay with T-47D breast and in the assay on UACC-62 melanoma was above 100 µM each time.

Turning to `O=[N+]([O-])c1c(Br)cc(Br)c2c1Nc1c(ccc(Cl)c1Cl)S2`, the TGI was 7.49 µM with CCRF-CEM leukemia; 27.3 µM with DU-145 prostate; 19.1 µM in the assay with HCT-116 colon; 34.3 µM in the assay with HOP-92 NSCLC; above 100 µM in the assay with HS 578T breast; 31.5 µM in the assay on MDA-MB-435. Besides, the TGI in the assay on NCI/ADR-RES ovarian was determined as 75.1 µM; in the assay with OVCAR-8 ovarian it was 13.6 µM; with SF-268 CNS, 38.6 µM; in the assay with T-47D breast it was 29.9 µM; with UACC-62 melanoma, 33.1 µM.

With `COc1cccc(CC(C)NCC(O)c2ccc(O)c(O)c2)c1` (stereo not given), the TGI with CCRF-CEM leukemia, with DU-145 prostate, with HCT-116 colon, in the assay on HOP-92 NSCLC, in the assay with HS 578T breast and with MDA-MB-435 was above 100 µM throughout. Besides, the TGI in the assay with NCI/ADR-RES ovarian was above 100 µM; with OVCAR-8 ovarian, 53.6 µM; with SF-268 CNS, above 100 µM; with T-47D breast, above 100 µM; in the assay on UACC-62 melanoma it was above 100 µM.

For `C(=C\c1cccc(/C=C/c2ccccn2)n1)/c1ccccn1`, the TGI in the assay on CCRF-CEM leukemia is above 100 µM; in the assay with DU-145 prostate, above 100 µM; in the assay on HCT-116 colon it was above 100 µM; in the assay on HOP-92 NSCLC, above 100 µM; in the assay on HS 578T breast, 44.3 µM; with MDA-MB-435 it was above 100 µM. For the same molecule, the TGI is above 100 µM in the assay with NCI/ADR-RES ovarian; above 100 µM in the assay with OVCAR-8 ovarian; 37.2 µM with SF-268 CNS; above 100 µM in the assay with T-47D breast; 83.1 µM in the assay on UACC-62 melanoma.

On to `CC(=O)O[C@@H]1C[C@@]23C[C@@]24CC[C@H](OC2OCC(O)C(O)C2O)C(C)(C)[C@@H]4CC=C3[C@]2(C)C[C@@H]3OC4(C[C@@H](C)[C@@H]3[C@@]12C)OC(O)[C@@]1(C)O[C@@H]41` (stereo not given in full), for which the TGI with CCRF-CEM leukemia is 63.5 µM; in the assay on DU-145 prostate it was above 100 µM; in the assay with HCT-116 colon, 49.7 µM; in the assay with HOP-92 NSCLC, above 100 µM; in the assay with HS 578T breast it was above 100 µM; in the assay with MDA-MB-435, above 100 µM. In addition, the TGI is above 100 µM in the assay on NCI/ADR-RES ovarian; above 100 µM with OVCAR-8 ovarian; above 100 µM in the assay on SF-268 CNS; 97.7 µM in the assay on T-47D breast; 54.8 µM in the assay with UACC-62 melanoma.

Take `O=C(CCN1CCCC1)Nc1ccc2sc3ccccc3c(=O)c2n1`: the TGI with CCRF-CEM leukemia was found to be 25.8 µM; with DU-145 prostate it was 25.7 µM; in the assay with HCT-116 colon it was 16.4 µM; in the assay on HOP-92 NSCLC, 60.4 µM; with HS 578T breast, 18.2 µM; in the assay on MDA-MB-435 it was 17.8 µM. Moreover, the TGI in the assay on NCI/ADR-RES ovarian was 21.4 µM; in the assay on OVCAR-8 ovarian, 17.3 µM; in the assay with SF-268 CNS, above 31.6 µM; in the assay with T-47D breast it was above 31.6 µM; with UACC-62 melanoma it was 17.2 µM.

Turning to `CN(C)/N=C/c1cn(C)c(=O)n(C)c1=O`, the TGI in the assay on CCRF-CEM leukemia, in the assay with DU-145 prostate, with HCT-116 colon, in the assay on HOP-92 NSCLC, in the assay with HS 578T breast and in the assay with MDA-MB-435 was above 100 µM each time. In addition, the TGI with NCI/ADR-RES ovarian, in the assay with OVCAR-8 ovarian, with SF-268 CNS, in the assay with T-47D breast and in the assay on UACC-62 melanoma was above 100 µM throughout.

For the molecule `Cc1cc(O)c(C(C)C)cc1SC#N`, the TGI in the assay with CCRF-CEM leukemia is 24.6 µM; in the assay with DU-145 prostate it was 28.8 µM; with HOP-92 NSCLC it was 25.3 µM; in the assay on HS 578T breast, 67.4 µM; in the assay with MDA-MB-435, 27 µM; in the assay on NCI/ADR-RES ovarian, 47.7 µM. For the same molecule, the TGI was 88.9 µM with OVCAR-8 ovarian, 49.3 µM in the assay with SF-268 CNS, 65 µM in the assay with T-47D breast and 28.7 µM in the assay with UACC-62 melanoma.

As to `CCOC(=O)c1c(N2CCCC2)ncn(-c2ccccc2)c1=S`, the TGI in the assay with CCRF-CEM leukemia, in the assay with DU-145 prostate, with HCT-116 colon, in the assay on HOP-92 NSCLC, with HS 578T breast and in the assay with MDA-MB-435 was above 100 µM each time. Besides, the TGI in the assay with NCI/ADR-RES ovarian, with OVCAR-8 ovarian, in the assay with SF-268 CNS, in the assay on T-47D breast and in the assay with UACC-62 melanoma was above 100 µM each time.

Take `CCOP(=O)(OCC)C(Nc1cccc(F)c1)c1ccccc1` (stereo not given): the TGI with CCRF-CEM leukemia, in the assay with DU-145 prostate, with HCT-116 colon, in the assay on HOP-92 NSCLC, with HS 578T breast and in the assay with MDA-MB-435 was above 100 µM each time. For the same molecule, the TGI in the assay on NCI/ADR-RES ovarian, with OVCAR-8 ovarian, with SF-268 CNS, in the assay on T-47D breast and in the assay on UACC-62 melanoma was above 100 µM in each case.

Turning to `CCc1c(Cc2cccc3ccccc23)n2c(nc1=O)SCC2OCCO` (stereo not given), the TGI in the assay with CCRF-CEM leukemia was 74 µM; in the assay with DU-145 prostate it was above 100 µM; in the assay on HCT-116 colon it was above 100 µM; with HOP-92 NSCLC, 34.7 µM; in the assay on HS 578T breast, above 100 µM; in the assay with MDA-MB-435 it was 38.4 µM. Also, the TGI in the assay with NCI/ADR-RES ovarian, in the assay on OVCAR-8 ovarian, in the assay on SF-268 CNS, in the assay with T-47D breast and in the assay on UACC-62 melanoma was above 100 µM in each case.

Take `CCCCc1cc2c(C)cc(=O)oc2c(O)c1O`: the TGI is 56.3 µM in the assay with CCRF-CEM leukemia; above 100 µM with DU-145 prostate; 96.1 µM in the assay on HCT-116 colon; 59.6 µM with HOP-92 NSCLC; 59.5 µM with HS 578T breast; above 100 µM in the assay with MDA-MB-435. Moreover, the TGI with NCI/ADR-RES ovarian was 56.4 µM; in the assay on OVCAR-8 ovarian it was above 100 µM; with SF-268 CNS it was above 100 µM; with T-47D breast it was 82.3 µM.
